In patent publication US8889671B2, “Compounds and methods for treating bacterial infections” (AstraZeneca AB, priority 2013, dated 2014):
≈ marks a conversion by molar mass, not a printed value. Read-outs that look alike come from different tables or passages of the source.

Legend:
Pseudomonas aeruginosa = experiment: Susceptibility testing (MIC) Assay 2, broth microdilution; format: cell-based; settings: for MIC: PAO1, read-out: Pae MIC
Description: (§1) Minimum Inhibitory Concentrations (MICs) were determined by the broth microdilution method in accordance with the Clinical and Laboratory Standards Institute (CLSI) guidelines. In brief, organism suspensions were adjusted to a 0.5 McFarland standard to yield a final inoculum between 3×10^5 and 7×10^5 colony-forming units (CFU)/mL. Bacterial inocula were generally prepared in sterile, cation adjusted Mueller-Hinton Broth (Becton Dickinson) which included Escherichia coli, Klebsiella pneumoniae, and Pseudomonas aeruginosa. Haemophilus influenzae bacterial inocula were prepared in sterile, cation adjusted Mueller-Hinton Broth (Becton Dickinson) containing 0.5% yeast extract (Becton Dickinson) plus 30 mL of 15 μg/mL Bovine Hematin stock (Sigma), and 3 mL of 15 μg/mL β-nicotinamide adenine dinucleotide (Sigma). Strains of Neisseria were tested for MICs using agar dilution methodology in accordance with CLSI guidelines. For broth microdilution testing, an inoculum volume of 100 μL was added to wells (using a Tecan EVO robot) containing 2 μL of DMSO containing 2-fold serial dilutions of drug. All inoculated microdilution panels were incubated in ambient air at 35° C. for 18-24 hours. Following incubation, the lowest concentration of the drug that prevented visible growth as read at OD600 nm and confirmed by a visual read using a test reading mirror was recorded as the MIC. Performance of the assay was monitored by the use of laboratory quality-control strains and commercially available control compounds with defined MIC spectrums, in accordance with CLSI guidelines. Table 3 provides the MIC results (μM) of Examples 1-77 tested in Assay 2. Table 4 provides the MIC (μg/mL) results of Examples 78-80 tested in Assay 2.

Klebsiella pneumoniae = experiment: as above; format: cell-based; settings: clinical isolate, mucoid, read-out: Kpn MIC
Description: as §1

Escherichia coli = experiment: as above; format: cell-based; settings: K12, read-out: Eco MIC
Description: as §1

Haemophilus influenzae = experiment: as above; format: cell-based; settings: ATCC 51907, in vivo strain, read-out: Hin MIC
Description: as §1

[1] = target: Escherichia coli DNA gyrase A/B tetramer (Escherichia coli (strain K12), UniProt P0AES4+P0AES6); experiment: DNA gyrase supercoiling activity fluorescence polarisation assay; format: biochemical; settings: Eco Gyr FP Mean IC50, E. coli DNA gyrase supercoiling, 0.3 mM ATP
Description: In a black, 384-well polystyrene assay plate, 30 microliters/well of 5 nM Escherichia coli DNA gyrase A/B tetramer and 130 micrograms/mL of topologically relaxed plasmid containing the triplex-forming sequence
in an assay buffer consisting of 35 mM Tris-HCl (pH 7.5), 24 mM KCl, 4 mM MgCl2, 2 mM dithiothreitol, 1.8 mM spermidine, 5% (v/v) glycerol, 200 nM bovine serum albumin, 0.8% dimethylsulfoxide, and 0.3 mM ATP were incubated at ambient temperature for (typically 30 minutes) in the absence or presence of 5-10 different concentrations of test compound. The supercoiling reactions were quenched by the addition of 10 microliters/well of 40 nM oligodeoxynucleotide probe in 3× triplex-forming buffer consisting of 150 mM NaCl, and 150 mM sodium acetate at pH 3.5. The oligodeoxynucleotide probe was 5′-BODIPY-FL-labeled
After 60 minutes, the fluorescence anisotropy of the BODIPY-FL was measured in a Tecan Ultra plate reader, using 485 nm excitation and 535 nm emission filters equipped with polarizers. The IC50 was determined by nonlinear regression using two control reactions.

Streptococcus pyogenes = experiment: Susceptibility testing (MIC) Assay 1, broth microdilution; format: cell-based; settings: Streptococcus pyrgenes, in vivo strain, read-out: Spy MIC
Description: (§2) Minimum Inhibitory Concentrations (MICs) were determined by the broth microdilution method in accordance with the Clinical and Laboratory Standards Institute (CLSI) guidelines. In brief, organism suspensions were adjusted to a 0.5 McFarland standard to yield a final inoculum between 3×10^5 and 7×10^5 colony-forming units (CFU)/mL. Bacterial inocula were prepared for most organisms in sterile, cation adjusted Mueller-Hinton Broth (Beckton Dickinson). The streptococci were prepared as above in cation adjusted Mueller-Hinton Broth to which 2.5% lysed horse blood (Hema Resource & Supply Inc.) was added. An inoculum volume of 100 μL was added to wells (using a Tecan EVO robot) containing 2 μL of DMSO containing 2-fold serial dilutions of drug. All inoculated microdilution trays were incubated in ambient air at 35° C. for 18-24 hours. Following incubation, the lowest concentration of the drug that prevented visible growth as read at OD600 nm and confirmed by a visual read using a test reading mirror was recorded as the MIC. Performance of the assay was monitored by the use of laboratory quality-control strains and commercially available control compounds with defined MIC spectrums, in accordance with CLSI guidelines. Table 1 provides the MIC results (μM) of Examples 1-77 tested in Assay 1. Table 2 provides the MIC (μg/mL) results of Examples 78-80 tested in Assay 1.

Staphylococcus aureus = experiment: as above; format: cell-based
Description: as §2

Streptococcus pneumoniae = experiment: as above; format: cell-based
Description: as §2

[2] = ATCC51907, Haemophilus influenzae
[3] = Staphylococcus aureus, Staphylococcus aureus in vivo strain, MSQS, read-out: Sau(d) MIC
[4] = Staphylococcus aureus, in vivo strain, MRQR, read-out: Sau(e) MIC
[5] = Staphylococcus aureus, serum, read-out: Sau(f) MIC
[6] = in vivo strain (footnote b), read-out: Spn(b) MIC
[7] = in vivo strain (footnote c), read-out: Spn(c) MIC

Compound	MIC (Pseudomonas aeruginosa) [µM]	MIC (Klebsiella pneumoniae) [µM]	MIC (Escherichia coli) [µM]	MIC (Haemophilus influenzae; [2]) [µM]	IC50 [1] [nM]	MIC (Streptococcus pyogenes; Streptococcus pyogenes) [µM]	MIC (Staphylococcus aureus; [3]) [µM]	MIC (Staphylococcus aureus; [4]) [µM]	MIC (Staphylococcus aureus; [5]) [µM]	MIC (Streptococcus pneumoniae; [6]) [µM]	MIC (Streptococcus pneumoniae; [7]) [µM]	Pae MIC (Pseudomonas aeruginosa; PAO1) [µM]	MIC (Haemophilus influenzae) [µM]	MIC (Streptococcus pyogenes) [µM]	MIC (Staphylococcus aureus; Staphylococcus aureus in vivo strain, MSQS, read-out: Sau(d) MIC) [µM]
C[C@@H]1CN2c3c(cc4c(N5CC(C)(C)OC5=O)noc4c3F)CC3(C(=O)NC(=O)NC3=O)[C@H]2[C@H](C)O1 (racemic) [Example 12, (2R,4S,4aS)-8-(5,5-Dimethyl-2-oxo-1,3-oxazolidin-3-yl)-11-fluoro-2,4-dimethyl-1,2,4,4a-tetrahydro-2′H,6H-spiro[1,4-oxazino[4,3-a][1,2]oxazolo[4,5-g]quinoline-5,5′-pyrimidine]-2′,4′,6′(1′H,3′H)-trione]	> 200	> 200	100 (≈ 50.1 µg/mL)	3.1 (≈ 1.55 µg/mL)	3200	3.1 (≈ 1.55 µg/mL)	1.6 (≈ 0.802 µg/mL)	3.1 (≈ 1.55 µg/mL)	25 (≈ 12.5 µg/mL)	6.2 (≈ 3.11 µg/mL)	6.2 (≈ 3.11 µg/mL)				
COC[C@H]1COC(=O)N1c1noc2c(F)c3c(cc12)CC1(C(=O)NC(=O)NC1=O)[C@H]1[C@H](C)O[C@H](C)CN31 (single isomer, unassigned) [Example 17]	> 200	> 200	50 (≈ 25.9 µg/mL)	0.39 (≈ 0.202 µg/mL)	140	0.55 (≈ 0.285 µg/mL)	0.28 (≈ 0.145 µg/mL)	0.78 (≈ 0.404 µg/mL)	0.39 (≈ 0.202 µg/mL)	0.55 (≈ 0.285 µg/mL)	0.55 (≈ 0.285 µg/mL)				
COC[C@H]1COC(=O)N1c1noc2c(F)c3c(cc12)CC1(C(=O)NC(=O)NC1=O)[C@H]1[C@H](C)O[C@H](C)CN31 (single isomer, unassigned) [Example 67]		>200	25 (≈ 12.9 µg/mL)		330			0.55 (≈ 0.285 µg/mL)	0.55 (≈ 0.285 µg/mL)	0.4 (≈ 0.207 µg/mL)	0.55 (≈ 0.285 µg/mL)	>200	0.55 (≈ 0.285 µg/mL)	0.28 (≈ 0.145 µg/mL)	0.28 (≈ 0.145 µg/mL)
C[C@@H]1CN2c3c(cc4c(N5CCOC5=O)noc4c3F)CC3(C(=O)NC(=O)NC3=O)[C@H]2[C@H](C)O1 [Example 1, (2R,4S,4aS)-11-Fluoro-2,4-dimethyl-8-(2-oxo-1,3-oxazolidin-3-yl)-1,2,4,4a-tetrahydro-2′H,6H-spiro[1,4-oxazino[4,3-a][1,2]oxazolo[4,5-g]quinoline-5,5′-pyrimidine]-2′,4′,6′(1′H,3′H)-trione]	> 200	> 200	50 (≈ 23.7 µg/mL)	0.78 (≈ 0.369 µg/mL)	1300	0.39 (≈ 0.185 µg/mL)	0.39 (≈ 0.185 µg/mL)	3.1 (≈ 1.47 µg/mL)	0.78 (≈ 0.369 µg/mL)	0.78 (≈ 0.369 µg/mL)	0.78 (≈ 0.369 µg/mL)				
C[C@@H]1CN2c3c(cc4c(N5C(=O)OC[C@H]5C)noc4c3F)CC3(C(=O)NC(=O)NC3=O)[C@H]2[C@H](C)O1 [Example 2, (2R,4S,4aS)-11-Fluoro-2,4-dimethyl-8-[(4R)-4-methyl-2-oxo-1,3-oxazolidin-3-yl]-1,2,4,4a-tetrahydro-2′H,6H-spiro[1,4-oxazino[4,3-a][1,2]oxazolo[4,5-g]quinoline-5,5′-pyrimidine]-2′,4′,6′(1′H,3′H)-trione]	> 200	> 200	100 (≈ 48.7 µg/mL)	1.6 (≈ 0.78 µg/mL)	2700	3.1 (≈ 1.51 µg/mL)	3.1 (≈ 1.51 µg/mL)	12 (≈ 5.85 µg/mL)	6.2 (≈ 3.02 µg/mL)	12 (≈ 5.85 µg/mL)	3.1 (≈ 1.51 µg/mL)				
